According to the NIST ThermoML archive (doi:10.1016/j.jct.2015.05.028):
Numbers after ± are expanded uncertainties.

Assay: mn = molality of the nth substance listed, in mol/kg
Conditions: 99.6 kPa, Liquid, Vibrating tube method

CCN1C(=O)N(CC)C2NC(=O)NC21 (stereo not given) + O
mass density [kg/m3]
Conditions | 278.15 K | 288.15 K | 298.15 K | 308.15 K | 318.15 K
m1 = 0.01158 | 1000.48 ± 0.11 | 999.594 ± 0.11 | 997.533 ± 0.11 | 994.508 ± 0.11 | 990.681 ± 0.11
m1 = 0.01315 | 1000.54 ± 0.11 | 999.667 ± 0.11 | 997.589 ± 0.11 | 994.565 ± 0.11 | 990.747 ± 0.11
m1 = 0.01794 | 1000.76 ± 0.11 | 999.871 ± 0.11 | 997.801 ± 0.11 | 994.774 ± 0.11 | 990.935 ± 0.11
m1 = 0.02385 | 1001.02 ± 0.11 | 1000.12 ± 0.11 | 998.052 ± 0.11 | 995.029 ± 0.11 | 991.185 ± 0.11
m1 = 0.02832 | 1001.21 ± 0.11 | 1000.32 ± 0.11 | 998.231 ± 0.11 | 995.196 ± 0.11 | 991.363 ± 0.11
m1 = 0.03477 | 1001.5 ± 0.11 | 1000.6 ± 0.11 | 998.521 ± 0.11 | 995.477 ± 0.11 | 991.629 ± 0.11
m1 = 0.04062 | 1001.76 ± 0.11 | 1000.85 ± 0.11 | 998.752 ± 0.11 | 995.71 ± 0.11 | 991.866 ± 0.11
m1 = 0.04476 | 1001.95 ± 0.11 | 1001.03 ± 0.11 | 998.934 ± 0.11 | 995.885 ± 0.11 | 992.035 ± 0.11
m1 = 0.04841 | 1002.11 ± 0.11 | 1001.18 ± 0.11 | 999.081 ± 0.11 | 996.03 ± 0.11 | 992.176 ± 0.11
m1 = 0.0537 | 1002.35 ± 0.11 | 1001.42 ± 0.11 | 999.318 ± 0.11 | 996.256 ± 0.11 | 992.398 ± 0.11
m1 = 0.05905 | 1002.58 ± 0.11 | 1001.63 ± 0.11 | 999.528 ± 0.11 | 996.468 ± 0.11 | 992.605 ± 0.11
m1 = 0.06432 | 1002.81 ± 0.11 | 1001.87 ± 0.11 | 999.742 ± 0.11 | 996.678 ± 0.11 | 992.818 ± 0.11
m1 = 0.06647 | 1002.9 ± 0.11 | 1001.96 ± 0.11 | 999.836 ± 0.11 | 996.759 ± 0.11 | 992.893 ± 0.11
m1 = 0.06907 | 1003.01 ± 0.11 | 1002.07 ± 0.11 | 999.94 ± 0.11 | 996.876 ± 0.11 | 993.011 ± 0.11
